Test results published in publication PMC11863921 (BMC Biology, 2025).
“Also recorded” adds a separate entry of the source.

Target: T1, AsolRXFP/LGR3 (Acanthaster planci, UniProt A0A8B7XXQ8)
T1 sequence (A0A8B7XXQ8 1-847): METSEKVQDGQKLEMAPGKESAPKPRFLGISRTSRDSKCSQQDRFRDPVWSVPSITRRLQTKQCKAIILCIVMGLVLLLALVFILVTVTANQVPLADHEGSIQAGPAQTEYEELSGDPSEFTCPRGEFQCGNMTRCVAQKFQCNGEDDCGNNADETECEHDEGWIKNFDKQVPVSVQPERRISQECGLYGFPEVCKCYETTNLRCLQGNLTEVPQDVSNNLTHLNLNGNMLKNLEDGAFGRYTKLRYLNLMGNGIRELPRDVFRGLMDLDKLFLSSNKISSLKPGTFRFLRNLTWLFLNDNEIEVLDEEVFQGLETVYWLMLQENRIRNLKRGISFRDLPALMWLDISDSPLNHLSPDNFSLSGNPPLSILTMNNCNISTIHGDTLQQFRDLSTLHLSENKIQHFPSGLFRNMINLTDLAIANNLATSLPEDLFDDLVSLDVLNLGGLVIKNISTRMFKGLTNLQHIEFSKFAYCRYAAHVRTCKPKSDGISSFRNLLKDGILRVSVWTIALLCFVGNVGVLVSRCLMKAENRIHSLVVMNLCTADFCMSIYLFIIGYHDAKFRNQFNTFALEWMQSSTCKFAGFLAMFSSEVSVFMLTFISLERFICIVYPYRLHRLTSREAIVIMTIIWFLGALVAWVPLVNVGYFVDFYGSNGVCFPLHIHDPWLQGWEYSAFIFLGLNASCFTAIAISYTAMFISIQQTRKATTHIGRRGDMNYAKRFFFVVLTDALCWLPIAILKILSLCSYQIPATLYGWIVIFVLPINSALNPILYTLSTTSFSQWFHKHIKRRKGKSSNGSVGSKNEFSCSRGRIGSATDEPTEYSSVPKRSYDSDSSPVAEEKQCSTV
Test: CRE reporter gene assay in CHO cells stably expressing AsolRXFP/LGR3
Type: cell-based, A. cf. solaris
Details: for cAMP activity / CRE reporter gene activation: increasing concentrations
Experimental: Human embryonic kidney (HEK) 293T cells were grown in complete Dulbecco’s modified Eagle medium (DMEM; Gibco) and Chinese hamster ovary (CHO) cells in complete DMEM/F12 (Gibco). Media was supplemented with 10% fetal bovine serum, 1% penicillin/streptomycin, and 1% L‐glutamine (complete media; All from Gibco). HEK-293T cells were transfected with LipofectAMINE 2000 (Invitrogen) and CHO cells with CHO TransIT and CHO-Mojo (Mirus), both according to the manufacturer’s instructions.
CHO and HEK293T cells stably expressing AsolRXFP/LGR3 were generated by lentiviral transduction. HEK293T cells were plated in 10 cm dishes for transfection with pLenti X1-Ef1α-COT-RXFP-like 2-IRES-GFP along with the lentiviral packaging and envelope plasmids pMDL, pRSV‐Rev, and pCMV‐VSV‐G, using Lipofectamine 2000. The following day, media containing lentivirus was harvested and filtered through a 0.45 μm syringe filter. Fresh CHO and HEK293T cells in 10 cm plates were transduced by replacing the cell culture media with the filtered media containing lentivirus, mixed with 4 μg/mL hexadimethrine bromide (Polybrene) to increase transduction efficiency. Three rounds of transduction were performed over 32 h, before cells were allowed to recover for three days in complete media. Transduced cells were sorted from non-transduced cells using the GFP reporter by fluorescence-activated cell sorting (FACS), using a Becton Dickinson FACSAria III as previously described. Single, live cells with low GFP expression were selected to represent low AsolRXFP/LGR3 expression and were subsequently grown to confluency in a T175 flask and cryopreserved.
The ability of the A. cf. solaris receptors to respond to A. cf. solaris RGP1 and RGP2 peptides was tested using a pCRE β-galactosidase reporter gene assay in CHO cells stably expressing AsolRXFP/LGR3 or HEK-293T cells transfected with AsolRXFP/LGR4 (long) or AsolRXFP/LGR4 (short), as described in detail previously. Importantly, the pCRE β-galactosidase reporter gene assay measures both Gs and Gq activation downstream of GPCR activation by monitoring CREB-mediated gene transcription. Cells were seeded in 96 well plates and were left to grow overnight at 37 °C in an incubator with 5% CO2. The next day the cells were transfected with different amounts of the pCRE reporter gene DNA [57] and/or pcDNA3.1 receptor constructs, as described above, and were left to grow overnight in an incubator. Triplicate wells in each plate were transfected with the equivalent amount of pCRE reporter gene DNA and pcDNA3.1 without a receptor-encoding insert as the background CRE activity control. The next day cells were exposed in triplicate wells to increasing concentrations of peptides diluted in media for 6 h at 37 °C in an incubator. Triplicate parallel wells contained 5 µM forskolin and blank media as positive and negative controls, respectively. At the end of the incubation period, the media was aspirated, and the plate was stored at − 80 °C until development. Plates were thawed for the development of β-galactosidase activity, as described previously, with absorbance being read at 570 nm on an Epoch 2 microplate reader. The data were analyzed as the percentage of the response induced by 5 µM forskolin and pooled followed by fitting to a three-parameter sigmoidal dose–response curve using GraphPad Prism 10. Experiments were performed at least three times with triplicate determinations in each assay (Additional file 17: Dataset S10).

Row | Substance | efficacy (Emax) (CHO-AsolRXFP/LGR3 cells, 5 µM forskolin = reference, n = 6) | cAMP activity / CRE reporter gene activation (CHO-AsolRXFP/LGR3 cells) | relative potency/efficacy as ligand for AsolRXFP/LGR3 (compared with RGP1)
1 | Acanthaster cf. solaris Relaxin-like gonad-stimulating peptide 1 [AsolRGP1] | 38.6 ± 6.9 % forskolin response | concentration-dependent cAMP activity; also recorded: dose-dependent increase in CRE reporter gene activation | 
2 | Acanthaster cf. solaris Relaxin-like gonad-stimulating peptide 2 [AsolRGP2] |  | only at high concentrations; also recorded: small but significant response but no clear dose–response | much lower than that of RGP1
